Measurements published in patent US5977065A, “Bacterial nitroreductase for the reduction of CB1954 and analogues thereof to a cytotoxic form” (Cancer Research Campaign Technology Limited, priority 1991, dated 1999).
*1 amine or outer side, *2 acyl side, *3 side chain or, on linkers, in order; H or OH if unused. Where a SMILES comes first, the peptide text is derived from it. Bridges are numbered along the chain shown (N, C = ends). Roman numbers before positions name the chains, in order. [ ]: non-standard residue; d: D form. Actinocin(9to1) = Cc1c2oc3c(C)ccc(C(=O)[*:1])c3nc-2c(C(=O)[*:2])c(N)c1=O; NMeV = CN[C@H](C(=O)O)C(C)C; Sar = CNCC(=O)O

Experiments:
[1] = test system: NC(=O)c1cc(N2CC2)c([N+](=O)[O-])cc1[N+](=O)[O-]; test: Enzyme kinetic and inhibition studies; type: biochemical, E. coli B
[2] = test system: CC1=CC(=O)c2ccccc2C1=O; test: Enzyme kinetic and inhibition studies; type: biochemical, E. coli B
[3] = molecular target: T1, E. coli nitroreductase (Escherichia coli, UniProt P38489); test: Substrate specificity: relative rate of NADH oxidation by HPLC (Table 5); type: biochemical; settings: relative to CB 1954; 37° C. in air, NADH 500 μM, substrate 100 μM
T1 construct: endogenous in cells; host or cells: E. coli B cell paste; endogenous enzyme purified by Phenyl-Sepharose and Q-Sepharose chromatography, not recombinant
Method: The ability of the E. coli nitroreductase of the invention to reduce nitro-compounds other than CB 1954 was determined by HPLC by following the decrease in the peak area of NADH resulting from its oxidation. The experiments were carried out as above but the aliquots were injected onto a Partisphere SAX (110×4.7 mm) HPLC column and eluted isocratically (1 ml/min) with 75 mM NaH2 PO4.
The relative rates of reduction of various nitrobenzamides and
nitrobenzenes with E. coli nitroreductase enzyme. Reduction
rates were determined by the resulting oxidation of NADH. All
reactions were carried out at 37° C. in air, with NADH (500
electron donor, at an initial substrate concentration of 100 μM.

[4] = In vivo toxicity of prodrug in mice; settings: for deaths: dose 10 mg/kg i.p., groups of 3 mice, 10 mg/kg
Method: The actinomycin D prodrug (AMDPD) of formula V was tested for toxicity in mice. Groups of 3 mice were given 1, 10 or 100 mg/kg body weight i.p. of AMPD, and two further groups of 3 mice were given 1 and 10 mg/kg body weight i.p. of actinomycin D (AMD) dissolved in arachis oil. A further group of 3 mice were untreated, and a final group of 3 mice were given arachis oil i.p. only.
The body weight of the mice were monitored over 9 days. All mice treated with 10 mg/kg of AMD were dead by day 1. […] In practice, the toxicity of AMDPD is likely to be even lower, since the preparation of AMDPD used contains about 1% unconverted AMD.

[5] = molecular target: T2, E. coli B nitroreductase (Escherichia coli, UniProt P38489); test: Enzyme kinetic and inhibition studies; type: biochemical
T2 construct: endogenous in cells; host or cells: E. coli B cell paste; endogenous enzyme purified by Phenyl-Sepharose and Q-Sepharose chromatography, not recombinant
Method: Protein concentration was determined using the a conventional protein assay (Bio-Rad) calibrated against bovine serum albumin.

[6] = test system: V79 cells; test: Survival (colony forming ability) of V79 cells with enzyme-activated prodrugs (Table 8); type: cell-based
Method: (§1) Generation of cytotoxicity by the action of the E. coli nitroreductase of Example 1 upon the prodrugs 4-[bis(2-chloroethyl)amino]phenylcarbamic acid 4'-nitrobenzyl ester (I where R^1 NH2 =III) and N-4-nitrobenzyloxy-carbonyl-actinomycin D (V) are shown in Table 8.
(§2) The effect of enzyme-activated prodrugs on the survival of V79
(§3) cells. 1 ml volumes of V79 cells (2 × 10^5 /ml) were incubated
(§4) with prodrug, 500 μM NADH, and 10 μg/ml enzyme. After a 2 hour
(§5) incubation at 37° C., the cells were harvested and assayed for
(§6) their colony forming ability, and the supernatant assayed for
(§7) the concentration of remaining prodrug by HPLC.

[7] = molecular target: T1, E. coli nitroreductase; test: % drug reduction in the V79 incubations, remaining prodrug by HPLC (Table 8); type: biochemical
Method: as §1, §2, §3, §4, §5, §6, §7

[8] = test system: MAWI cells; test: Survival (colony forming ability) of MAWI cells with enzyme-activated prodrugs (Table 7); type: cell-based, human
Method: (§8) The effect of enzyme-activated prodrugs on the survival of MAWI
(§9) cells. 1 ml volumes of MAWI cells (2 × 10^5 /ml) were
(§10) with 50 μM prodrug, 500 μM NADH, and 10 μg/ml the enzyme of
(§11) Example 1. After a 2 hour incubation at 37° C., the cells were
(§12) harvested and assayed for their colony forming ability, and the
(§13) supernatant assayed for the concentration of remaining prodrug

[9] = molecular target: T2, E. coli B nitroreductase; test: % drug reduction in the MAWI incubations, remaining prodrug by HPLC (Table 7); type: biochemical
Method: as §8, §9, §10, §11, §12, §13

[10] = substrate: NC(=O)c1cc(N2CC2)c([N+](=O)[O-])cc1[N+](=O)[O-]; test: Enzyme kinetic studies; type: biochemical
Method: (§14) Quinone reductase activities were assayed by a spectrophotometric method using menadione as a substrate and cytochrome c as a terminal electron acceptor as described in Knox et al, Biochem. Pharmacol., 37, 4671-4677, 1988. Initial rates of reaction were determined by linear regression analysis (r>0.995) and kinetic parameters determined from the resulting plots as described by Roberts et al, Biochem. Pharmacol. 38, 4137-4143, 1989. Protein concentration was determined using the a conventional protein assay (Bio-Rad) calibrated against bovine serum albumin.
(§15) Kinetic parameters for the E. coli nitroreductase and Walker NAD(P)H, dehydrogenase (quinone) EC. […] The absolute rates of reduction of CB 1954 (i.e. under saturating conditions) by the two enzymes is their kcat values and this is 90 fold higher for the E. coli nitroreductase.

[11] = substrate: CC1=CC(=O)c2ccccc2C1=O; test: Enzyme kinetic studies; type: biochemical
Method: as §14, §15

[12] = test system: V79 cells; test: Survival (colony-forming ability) of V79 cells treated with CB 1954 in the presence of E. coli B nitroreductase (Table 4); type: cell-based, Hamster; settings: nitroreductase 2 μg/ml
Method: E. coli B nitroreductase. All treatments were for 2 hours at 37°
cells were then plated out for their resulting colony-forming ability.
nitroreductase concentration was 2 μg/ml and NADH was used as a […]

[13] = NR 10 μg/ml + 50 μM prodrug + 500 μM NADH
[14] = NR + prodrug + NADH, prodrug concentration not given

Molecule: E. coli B nitroreductase (Escherichia coli K-12)
- Km [1]: 862 ± 145 µM
- Km [2]: 80 µM

Molecule: NC(=O)c1cc(Cl)c([N+](=O)[O-])cc1[N+](=O)[O-] [5-chloro-2,4-dinitrobenzamide]
- RELATIVE RATE OF NADH OXIDATION NR [3]: 22.4

Molecule: Cc1c2oc3c(C)ccc(C(=O)N[C@@H]4C(=O)N[C@H](C(C)C)C(=O)N5CCC[C@H]5C(=O)N(C)CC(=O)N(C)[C@@H](C(C)C)C(=O)O[C@@H]4C)c3nc-2c(C(=O)N[C@@H]2C(=O)N[C@H](C(C)C)C(=O)N3CCC[C@H]3C(=O)N(C)CC(=O)N(C)[C@@H](C(C)C)C(=O)O[C@@H]2C)c(N)c1=O [AMD, actinomycin D] (I: T[dV]P[Sar][NMeV] / II: T[dV]P[Sar][NMeV]; ester I:1-I:C, II:1-II:C; linker I:N-II:N via Actinocin(9to1))
- Weight as % of Day 0, Day 2 ([4]; dose 1.0 mg/kg i.p., mice): 98.6%
- Weight as % of Day 0, Day 3 ([4]; dose 1.0 mg/kg i.p., mice): 95%
- Weight as % of Day 0, Day 7 ([4]; dose 1.0 mg/kg i.p., mice): 101.6%
- Weight as % of Day 0, Day 9 ([4]; dose 1.0 mg/kg i.p., mice): 103%
- deaths [4]: dead by day 1
- deaths ([4]; listed as Active Drug): All dead on day 1

Molecule: NC(=O)c1cc(NCCO)c([N+](=O)[O-])cc1[N+](=O)[O-] [2,4-dinitro-5-(2-hydroxyethylamino)benzamide]
- RELATIVE RATE OF NADH OXIDATION NR [3]: 0.04

Molecule: NC(=O)NN=Cc1ccc([N+](=O)[O-])o1 [5-nitro-2-furaldehydesemicarbazone]
- RELATIVE RATE OF NADH OXIDATION NR [3]: 3.6

Molecule: CC1=CC(=O)c2ccccc2C1=O [MENADIONE, menadione]
- Km of nitroreductase for menadione higher than Walker enzyme [5]: 60 fold

Molecule: NC(=O)c1ccc([N+](=O)[O-])cc1 [4-nitrobenzamide]
- RELATIVE RATE OF NADH OXIDATION NR [3]: 5.1

Molecule: NC(=O)c1cc(N2CC2)c([N+](=O)[O-])cc1N [2-amino-5-(aziridin-1-yl)-4-nitrobenzamide]
- RELATIVE RATE OF NADH OXIDATION NR [3]: < 0.01

Molecule: O=C(Nc1ccc(N(CCCl)CCCl)cc1)OCc1ccc([N+](=O)[O-])cc1 [I where R^1 NH2 = III, 4-[Bis(2-chloroethyl)amino]phenylcarbamic acid 4'-nitrobenzyl ester]
- % SURVIVAL ([6]; 50 μM prodrug alone): 27.1%
- % DRUG REDUCTION ([7]; 50 μM prodrug alone): < 1.0%
- % DRUG REDUCTION [7, 13]: 30%

Molecule: O=[N+]([O-])c1ccc(O)c([N+](=O)[O-])c1 [2,4-dinitrophenol]
- RELATIVE RATE OF NADH OXIDATION NR [3]: < 0.01

Molecule: NC(=O)c1ccccc1[N+](=O)[O-] [2-nitrobenzamide]
- RELATIVE RATE OF NADH OXIDATION NR [3]: 0.06

Molecule: NC(=O)c1cccc([N+](=O)[O-])c1 [3-nitrobenzamide]
- RELATIVE RATE OF NADH OXIDATION NR [3]: 1.8

Molecule: CN(C)C(=O)c1cc(N2CC2)c([N+](=O)[O-])cc1[N+](=O)[O-] [CB 10-107]
- % SURVIVAL ([8]; 50 μM prodrug alone, 2 hour 37° C.): 85.6%
- % SURVIVAL ([8]; NADH + prodrug, no enzyme): 87.9%
- % SURVIVAL [8, 13]: 5.0%
- % SURVIVAL [6, 14]: 5.0%
- % DRUG REDUCTION ([9]; 50 μM prodrug alone): < 1.0%
- % DRUG REDUCTION ([9]; NADH + prodrug, no enzyme): < 1.0%
- % DRUG REDUCTION [9, 13]: 45%
- % DRUG REDUCTION [7, 14]: 45%

Molecule: NC(=O)c1cc([N+](=O)[O-])cc([N+](=O)[O-])c1 [3,5-dinitrobenzamide]
- RELATIVE RATE OF NADH OXIDATION NR [3]: 75.5

B1: Walker NAD(P)H dehydrogenase (quinone) EC. 1.6.99.2 (Rattus norvegicus) (protein)
chain: AVRRALIVLAHAERTSFNYAMKEAAVEALKKKGWEVVESDLYAMNFNPLISRNDITGEPKDSENFQYPVESSLAYKEGRLSPDIVAEQKKLEAADLVIFQFPLYWFGVPAILKGWFERVLVAGFAYTYATMYDKGPFQNKKTLLSITTGGSGSMYSLQGVHGDMNVILWPIQSGILRFCGFQVLEPQLVYSIGHTPPDARVQVLEGWKKRLETVWEESPLYFAPSSLFDLNFQAGFLLKKEVQEEQKKNKFGLSVGHHLGKSIPADNQIKARK
notes: the enzyme isolated from the Walker tumour, EC.1.6.99.2; from tissue; host or cells: Walker tumour (Walker cell)
- Km [10]: 826 ± 46 µM
- Km [11]: 1.3 µM

B2: Nitroreductase (NR): flavoprotein nitroreductase isolated from E. coli B, molecular weight 24 kDa, FMN coenzyme (protein, UniProt P38489 1-217, looked up)
Oxygen-insensitive NAD(P)H …: MDIISVALKRHSTKAFDASKKLTPEQAEQIKTLLQYSPSSTNSQPWHFIVASTEEGKARVAKSAAGNYVFNERKMLDASHVVVFCAKTAMDDVWLKLVVDQEDADGRFATPEAKAANDKGRKFFADMHRKDLHDDAEWMAKQVYLNVGNFLLGVAALGLDAVPIEGFDAAILDAEFGLKEKGYTSLVVVPVGHHSVEDFNATLPKSRLPQNITLTEV
- % SURVIVAL [12]: 94%
